# Patent publication US11572590B2, “Methods for evaluating tumor cell spheroids using 3D microfluidic cell culture device” (Dana-Farber Cancer Institute, Inc., priority 2017, dated 2023)
# Read-outs that look alike come from different tables or passages of the source.
# Key:
# Assay in all cases: SelectScreen Kinase Profiling, single point inhibition and IC50 for off-target kinases
# Type in all cases: biochemical
# [1] = target: T1, off-target kinases (Homo sapiens, UniProt Q15139); settings: PRKD1 (PKC mu), ATP Km app, ZLYTE
# T1 sequence (Q15139 1-912): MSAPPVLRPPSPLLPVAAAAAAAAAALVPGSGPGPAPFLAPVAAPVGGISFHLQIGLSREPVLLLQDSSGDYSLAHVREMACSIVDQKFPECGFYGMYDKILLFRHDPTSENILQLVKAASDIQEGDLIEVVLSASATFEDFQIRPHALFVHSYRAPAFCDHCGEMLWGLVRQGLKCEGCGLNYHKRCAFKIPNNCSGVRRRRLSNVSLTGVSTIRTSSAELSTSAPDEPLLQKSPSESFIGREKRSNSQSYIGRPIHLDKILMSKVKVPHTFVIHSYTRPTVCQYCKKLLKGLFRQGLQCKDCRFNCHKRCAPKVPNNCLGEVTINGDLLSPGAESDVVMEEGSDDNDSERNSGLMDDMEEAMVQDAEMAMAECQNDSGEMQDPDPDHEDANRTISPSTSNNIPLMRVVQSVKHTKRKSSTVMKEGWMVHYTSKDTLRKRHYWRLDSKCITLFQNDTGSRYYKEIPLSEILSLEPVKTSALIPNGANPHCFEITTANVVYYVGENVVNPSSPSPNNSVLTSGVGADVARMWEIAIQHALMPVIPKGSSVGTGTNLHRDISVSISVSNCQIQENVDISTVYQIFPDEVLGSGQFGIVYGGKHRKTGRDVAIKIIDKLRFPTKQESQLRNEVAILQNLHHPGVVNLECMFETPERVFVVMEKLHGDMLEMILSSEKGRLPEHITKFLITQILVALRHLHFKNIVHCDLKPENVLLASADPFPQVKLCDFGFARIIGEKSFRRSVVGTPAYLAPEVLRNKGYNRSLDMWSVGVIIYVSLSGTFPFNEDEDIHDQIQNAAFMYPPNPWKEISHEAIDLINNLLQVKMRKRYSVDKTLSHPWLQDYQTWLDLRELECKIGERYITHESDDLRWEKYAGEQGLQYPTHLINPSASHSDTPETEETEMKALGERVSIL
# [2] = target: off-target kinases (Homo sapiens, UniProt P41240); settings: CSK, ZLYTE, ATP Km app
# off-target kinases (Homo sapiens, UniProt P41240), sequence (P41240 whole entry): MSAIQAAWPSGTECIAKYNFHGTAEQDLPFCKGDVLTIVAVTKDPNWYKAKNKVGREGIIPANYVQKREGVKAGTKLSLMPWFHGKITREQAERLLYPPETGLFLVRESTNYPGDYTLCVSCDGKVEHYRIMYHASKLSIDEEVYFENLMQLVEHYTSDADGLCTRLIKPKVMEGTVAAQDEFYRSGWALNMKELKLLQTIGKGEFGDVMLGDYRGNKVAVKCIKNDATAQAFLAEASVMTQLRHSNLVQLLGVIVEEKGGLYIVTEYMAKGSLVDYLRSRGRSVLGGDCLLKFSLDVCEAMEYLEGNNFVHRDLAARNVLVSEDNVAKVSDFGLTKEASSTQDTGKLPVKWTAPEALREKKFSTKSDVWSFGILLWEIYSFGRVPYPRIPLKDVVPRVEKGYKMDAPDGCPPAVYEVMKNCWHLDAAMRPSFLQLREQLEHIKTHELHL
# [3] = target: T2, off-target kinases (Homo sapiens, UniProt Q09013); settings: DMPK, LanthaScreen Binding
# T2 sequence (Q09013 1-629): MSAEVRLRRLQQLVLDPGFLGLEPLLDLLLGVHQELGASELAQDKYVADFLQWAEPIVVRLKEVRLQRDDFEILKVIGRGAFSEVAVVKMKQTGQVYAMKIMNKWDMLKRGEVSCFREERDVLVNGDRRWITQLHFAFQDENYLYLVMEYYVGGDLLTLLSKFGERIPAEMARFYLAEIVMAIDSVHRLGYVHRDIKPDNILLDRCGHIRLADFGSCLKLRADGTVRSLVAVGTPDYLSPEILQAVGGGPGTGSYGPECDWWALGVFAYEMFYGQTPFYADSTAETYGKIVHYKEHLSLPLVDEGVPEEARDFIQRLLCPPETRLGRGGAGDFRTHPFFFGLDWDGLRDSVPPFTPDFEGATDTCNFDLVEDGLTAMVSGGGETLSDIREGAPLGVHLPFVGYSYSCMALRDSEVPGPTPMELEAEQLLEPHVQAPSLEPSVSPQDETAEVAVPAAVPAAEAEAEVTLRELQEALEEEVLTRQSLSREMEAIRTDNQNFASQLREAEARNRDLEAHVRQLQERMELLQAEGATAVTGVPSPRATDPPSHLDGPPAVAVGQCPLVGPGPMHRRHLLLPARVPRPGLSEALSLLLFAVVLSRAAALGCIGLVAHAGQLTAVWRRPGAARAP
# [4] = target: off-target kinases (Homo sapiens, UniProt P00533, L861Q); settings: EGFR (ErbB1) L861Q (mutant), ZLYTE, ATP Km app
# off-target kinases (Homo sapiens, UniProt P00533, L861Q), sequence (P00533 25-1210 L861Q): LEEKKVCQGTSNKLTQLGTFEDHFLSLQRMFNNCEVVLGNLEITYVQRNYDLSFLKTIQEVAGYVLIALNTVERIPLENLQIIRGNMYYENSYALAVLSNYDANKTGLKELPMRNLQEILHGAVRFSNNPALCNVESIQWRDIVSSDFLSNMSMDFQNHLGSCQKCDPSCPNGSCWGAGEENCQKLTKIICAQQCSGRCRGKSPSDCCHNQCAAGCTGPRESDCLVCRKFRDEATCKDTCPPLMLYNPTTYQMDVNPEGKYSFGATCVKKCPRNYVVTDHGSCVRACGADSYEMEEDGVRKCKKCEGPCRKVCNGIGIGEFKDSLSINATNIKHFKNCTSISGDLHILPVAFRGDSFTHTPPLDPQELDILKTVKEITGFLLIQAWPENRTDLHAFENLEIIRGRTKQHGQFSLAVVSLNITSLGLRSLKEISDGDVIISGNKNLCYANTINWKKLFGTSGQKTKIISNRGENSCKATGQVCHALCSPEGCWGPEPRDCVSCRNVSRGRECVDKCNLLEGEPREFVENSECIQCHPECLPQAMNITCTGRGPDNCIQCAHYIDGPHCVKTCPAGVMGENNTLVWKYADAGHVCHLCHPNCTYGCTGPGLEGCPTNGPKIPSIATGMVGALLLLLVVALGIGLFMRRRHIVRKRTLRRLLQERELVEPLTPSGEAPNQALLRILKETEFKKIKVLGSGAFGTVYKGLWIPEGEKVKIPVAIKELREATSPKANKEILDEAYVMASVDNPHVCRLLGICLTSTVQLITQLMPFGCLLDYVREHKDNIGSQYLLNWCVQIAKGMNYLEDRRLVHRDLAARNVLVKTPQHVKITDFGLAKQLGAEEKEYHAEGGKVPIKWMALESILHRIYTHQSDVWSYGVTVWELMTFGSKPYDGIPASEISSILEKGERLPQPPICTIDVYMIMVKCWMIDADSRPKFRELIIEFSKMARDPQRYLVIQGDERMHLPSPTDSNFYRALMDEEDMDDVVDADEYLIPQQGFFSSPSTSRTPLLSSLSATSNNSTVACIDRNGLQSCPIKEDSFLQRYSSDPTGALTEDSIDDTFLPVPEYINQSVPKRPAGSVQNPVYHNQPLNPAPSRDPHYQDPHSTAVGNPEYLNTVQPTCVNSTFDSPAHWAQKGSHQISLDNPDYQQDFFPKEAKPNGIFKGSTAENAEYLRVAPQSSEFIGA
structure (smiles),measurement,setting,value
"N#Cc1cc(-c2ncnc(Nc3ccc(N4CCN(C5COC5)CC4)cc3)n2)ccc1OC1CCOCC1 [Compound 1, 5-(4-((4-(4-(oxetan-3-yl)piperazin-1-yl)phenyl)amino)-1,3,5-triazin-2-yl)-2-((tetrahydro-2H-pyran-4-yl)oxy)benzonitrile]",inhibition,[1]; read-out: % Inhibition 1,100%
same,inhibition,[1]; read-out: % Inhibition 2,95%
same,inhibition,[1]; read-out: % Inhibition Avg,98%
same,inhibition,[2]; read-out: % Inhibition 1,13%
same,inhibition,[2]; read-out: % Inhibition 2,10%
same,inhibition,[2]; read-out: % Inhibition Avg,12%
same,inhibition,[3]; read-out: % Inhibition 1,76%
same,inhibition,[3]; read-out: % Inhibition 2,79%
same,inhibition,[3]; read-out: % Inhibition Avg,78%
same,inhibition,[4]; read-out: % Inhibition 1,6%
same,inhibition,[4]; read-out: % Inhibition 2,5%
same,inhibition,[4]; read-out: % Inhibition Avg,5%
